Reference: patent publication EP3698776A1, “TAMPER-RESISTANT DOSAGE FORM WITH IMMEDIATE RELEASE AND RESISTANCE AGAINST SOLVENT EXTRACTION” (Grünenthal GmbH, priority 2019, dated 2020)

Legend:
[1] = tested on: non-dependent recreational opioid users; assay: Human abuse liability study, intranasal: pharmacodynamics (VAS Drug Liking, pupillometry); format: in vivo; settings: 30 mg oxycodone HCl, Completer Set
Experimental: The formulation according to Inventive Example 1 was tested in a human abuse liability study and compared to a commercial product and to placebo (placebo API and placebo TRF formulation).
(§1) A single-site, randomized, double-blind, double-dummy, active-comparator, placebo-controlled, 3-way crossover trial in adult non-dependent recreational opioid users was conducted to compare the intranasal abuse potential of the tablet formulation according to Inventive Example 1 and standard formulations of oxycodone.
(§2) The primary objective of the study was to compare the intranasal abuse potential of a manipulated formulation according to Inventive Example 1 and oxycodone active pharmaceutical ingredient (API) powder (representing manipulated oxycodone IR standard formulation). Primary measure: Peak effect (Emax) for Drug Liking "at this moment" on visual analog scale (VAS). The secondary objectives were to compare the pharmacokinetics (PK), further pharmacodynamic (PD) parameters, and assess safety and tolerability.
The trial design is illustrated in Figure 3 (Single-site, randomized, double-blind, double-dummy, active-comparator, placebo-controlled, 3-way crossover trial in male and female non-dependent recreational opioid users with recent intranasal use experience).
Subjects received single treatments of Test, Comparator, and Placebo in a randomized, double-blind, double-dummy, 3-way crossover. […]

[2] = Human abuse liability study, intranasal: pharmacokinetics; format: in vivo; settings: inhaled or intranasal, intranasal (insufflated), plasma, PK Set, read-out: median tmax
Experimental: as §1, §2
Subjects received single treatments of Test, Comparator, and Placebo in a randomized, double-blind, double-dummy, 3-way crossover. Each single treatment consisted of two investigational medicinal products (IMPs), to be insufflated (snorted) in quick succession in fixed sequence:
Pharmacokinetics results are presented in Figure 7 relative to the insufflated amount of oxycodone, mean dose-normalized plasma-concentration-time profiles of Oxycodone - PK Set: […]

Compound: COc1ccc2c3c1O[C@H]1C(=O)CC[C@@]4(O)[C@@H](C2)N(C)CC[C@]314.Cl [Comparator (C), oxycodone HCl]
- Peak effect (Emax) of Drug Liking "at this moment", Least Square Mean [1]: 75.0
- Tmax [2]: 1.75 h
